Experimental data reported in ChEMBL document CHEMBL1138976, “Anti-HIV activity of stilbene-related heterocyclic compounds” (Bioorg Med Chem Lett, 2006).
Calls of active or inactive are those of the source. The rule behind the calls is not given here.

Assays:
[1] = biological target: Nuclear factor NF-kappa-B complex (Homo sapiens) (UniProt Q00653+P19838+Q04206); experiment: Inhibition of TNFalpha activated NF-kappaB mediated transactivation of HIV-1 LTR Luc in 5.1 cells at 100 uM; assay type: functional, cell-based
Nuclear factor NF-kappa-B complex (Homo sapiens), sequence (P19838 whole entry, looked up): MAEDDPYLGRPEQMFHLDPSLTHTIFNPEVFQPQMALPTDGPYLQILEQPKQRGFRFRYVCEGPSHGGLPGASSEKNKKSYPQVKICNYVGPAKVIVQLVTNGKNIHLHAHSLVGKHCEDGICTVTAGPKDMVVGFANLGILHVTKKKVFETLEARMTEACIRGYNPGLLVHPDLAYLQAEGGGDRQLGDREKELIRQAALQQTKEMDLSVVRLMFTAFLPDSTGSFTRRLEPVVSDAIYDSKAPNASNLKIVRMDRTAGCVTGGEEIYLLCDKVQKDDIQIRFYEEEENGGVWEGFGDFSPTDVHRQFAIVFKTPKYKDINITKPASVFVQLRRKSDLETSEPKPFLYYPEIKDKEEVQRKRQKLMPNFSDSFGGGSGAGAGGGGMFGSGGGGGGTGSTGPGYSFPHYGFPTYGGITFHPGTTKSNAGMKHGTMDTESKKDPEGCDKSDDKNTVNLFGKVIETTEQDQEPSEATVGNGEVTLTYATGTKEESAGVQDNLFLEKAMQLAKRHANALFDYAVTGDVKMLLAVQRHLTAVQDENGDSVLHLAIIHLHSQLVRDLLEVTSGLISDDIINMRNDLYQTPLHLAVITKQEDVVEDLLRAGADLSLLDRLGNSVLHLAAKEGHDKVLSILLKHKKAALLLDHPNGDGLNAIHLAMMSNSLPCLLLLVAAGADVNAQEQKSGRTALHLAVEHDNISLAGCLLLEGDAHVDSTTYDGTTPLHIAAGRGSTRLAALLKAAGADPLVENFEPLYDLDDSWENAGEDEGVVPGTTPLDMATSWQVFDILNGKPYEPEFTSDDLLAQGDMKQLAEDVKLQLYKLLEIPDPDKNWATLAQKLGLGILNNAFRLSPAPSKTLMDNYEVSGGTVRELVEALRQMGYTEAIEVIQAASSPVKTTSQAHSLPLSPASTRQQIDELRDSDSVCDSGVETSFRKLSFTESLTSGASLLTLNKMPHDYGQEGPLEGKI
Nuclear factor NF-kappa-B complex (Homo sapiens), sequence (Q00653 whole entry, looked up): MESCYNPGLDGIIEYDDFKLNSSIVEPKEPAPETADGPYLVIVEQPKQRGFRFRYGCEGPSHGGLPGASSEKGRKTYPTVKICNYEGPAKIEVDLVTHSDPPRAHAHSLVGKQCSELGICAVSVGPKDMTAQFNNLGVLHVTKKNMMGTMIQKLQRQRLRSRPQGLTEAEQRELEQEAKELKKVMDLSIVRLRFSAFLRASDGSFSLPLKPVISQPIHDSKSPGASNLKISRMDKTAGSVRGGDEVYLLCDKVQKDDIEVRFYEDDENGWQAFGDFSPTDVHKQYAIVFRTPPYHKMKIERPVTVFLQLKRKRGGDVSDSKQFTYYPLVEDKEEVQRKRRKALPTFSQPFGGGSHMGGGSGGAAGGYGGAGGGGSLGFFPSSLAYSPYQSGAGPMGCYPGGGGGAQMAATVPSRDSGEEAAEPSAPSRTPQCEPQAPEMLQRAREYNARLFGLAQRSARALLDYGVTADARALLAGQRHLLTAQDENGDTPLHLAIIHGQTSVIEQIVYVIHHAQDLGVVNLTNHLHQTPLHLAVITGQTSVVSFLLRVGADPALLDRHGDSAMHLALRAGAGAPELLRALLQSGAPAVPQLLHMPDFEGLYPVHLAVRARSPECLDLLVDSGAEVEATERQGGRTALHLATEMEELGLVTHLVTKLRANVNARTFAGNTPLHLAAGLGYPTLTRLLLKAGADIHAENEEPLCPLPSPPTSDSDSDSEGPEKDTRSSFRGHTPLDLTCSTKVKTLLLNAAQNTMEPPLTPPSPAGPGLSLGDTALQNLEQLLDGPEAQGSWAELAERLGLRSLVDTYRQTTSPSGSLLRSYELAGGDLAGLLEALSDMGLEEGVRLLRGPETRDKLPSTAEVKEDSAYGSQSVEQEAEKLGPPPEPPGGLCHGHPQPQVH
Nuclear factor NF-kappa-B complex (Homo sapiens), sequence (Q04206 whole entry, looked up): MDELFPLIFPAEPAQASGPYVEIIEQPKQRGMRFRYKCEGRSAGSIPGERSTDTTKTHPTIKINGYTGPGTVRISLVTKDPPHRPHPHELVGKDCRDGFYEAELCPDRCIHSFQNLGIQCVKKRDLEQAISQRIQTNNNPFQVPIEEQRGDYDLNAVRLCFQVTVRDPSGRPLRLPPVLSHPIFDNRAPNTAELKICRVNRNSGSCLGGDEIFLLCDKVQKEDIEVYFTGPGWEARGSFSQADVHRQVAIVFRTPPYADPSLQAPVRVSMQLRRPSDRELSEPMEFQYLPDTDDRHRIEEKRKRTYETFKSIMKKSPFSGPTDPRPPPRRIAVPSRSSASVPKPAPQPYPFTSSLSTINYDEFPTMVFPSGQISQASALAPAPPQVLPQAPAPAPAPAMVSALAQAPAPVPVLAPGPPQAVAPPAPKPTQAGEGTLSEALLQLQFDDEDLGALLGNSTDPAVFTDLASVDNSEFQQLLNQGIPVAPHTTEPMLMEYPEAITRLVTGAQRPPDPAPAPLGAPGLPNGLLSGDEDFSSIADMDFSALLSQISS

[2] = tested on: Human immunodeficiency virus; experiment: Inhibition of HIV replication by recombinant virus assay; assay type: functional, organism-based
[3] = Cytotoxicity by Propidium Iodide staining
[4] = biological target: T1, Protein Tat (Human immunodeficiency virus type 1 group M subtype B (isolate PCV12)(HIV-1)) (UniProt P04326); experiment: Inhibition of Tat activity in HeLa cells transfected with Tat-Luc at 100 uM; assay type: functional, cell-based
T1 sequence (whole entry): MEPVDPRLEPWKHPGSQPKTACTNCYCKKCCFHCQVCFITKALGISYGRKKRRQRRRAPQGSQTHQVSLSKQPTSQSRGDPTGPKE

[5] = tested on: Human immunodeficiency virus; experiment: Specificity against NF-kappaB and Tat proteins assessed by activity in Hela Tet-ON assay; assay type: functional
[6] = tested on: Human immunodeficiency virus; experiment: Ratio of cytotoxic activity to anti HIV activity; assay type: functional

Compound: Oc1nnc(Cc2ccc(Cl)cc2Cl)c2ccccc12
- inhibition [1]: 99%
- IC50 ([2]; Human immunodeficiency virus 1): 96.2 µM
- CC50 [3]: 58 µM
- inhibition [4]: 53.9%
- Activity [5]: inactive
- Ratio CC50/IC50 [6]: 0.6

Compound: CSc1ccc(CC2(O)c3ccccc3C3=NCCCN32)cc1 (stereo not drawn)
- inhibition [1]: 99.8%
- IC50 ([2]; Human immunodeficiency virus 1): 61.5 µM
- CC50 [3]: 142 µM
- inhibition [4]: 13.9%
- Activity [5]: inactive
- Ratio CC50/IC50 [6]: 2.3

Compound: OC1(Cc2ccccc2Cl)c2cc(Cl)c(Cl)cc2C2=NCCN21 (stereo not drawn)
- inhibition [1]: 100%
- IC50 ([2]; Human immunodeficiency virus 1): 22.8 µM
- CC50 [3]: 30.1 µM
- inhibition [4]: 99.6%
- Activity [5]: Active
- Ratio CC50/IC50 [6]: 1.3

Compound: OC1(Cc2ccccc2Cl)c2ccccc2C2=NCCCN21 (stereo not drawn)
- inhibition [1]: 99.7%
- IC50 ([2]; Human immunodeficiency virus 1): 66.7 µM
- CC50 [3]: 78.6 µM
- inhibition [4]: < 0%
- Activity [5]: inactive
- Ratio CC50/IC50 [6]: 1.2

Compound: OC1(Cc2ccc(Cl)c(Cl)c2)c2ccccc2C2=NCCCN21 (stereo not drawn)
- inhibition [1]: 67.7%
- IC50 ([2]; Human immunodeficiency virus 1): 26.1 µM
- CC50 [3]: 85.2 µM
- inhibition [4]: 60%
- Activity [5]: inactive
- Ratio CC50/IC50 [6]: 3.3

Compound: O=c1c2ccccc2c(Cc2ccc(Cl)cc2)nn1-c1ccc([N+](=O)[O-])cc1
- inhibition [1]: 54.8%
- IC50 ([2]; Human immunodeficiency virus 1): 89.5 µM
- CC50 [3]: 96.3 µM
- inhibition [4]: 29.6%
- Activity [5]: inactive
- Ratio CC50/IC50 [6]: 1.1

Compound: OC1(Cc2ccc(Cl)cc2)c2ccccc2C2=NCCN21 (stereo not drawn)
- inhibition [1]: < 0%
- IC50 ([2]; Human immunodeficiency virus 1): 71 µM
- CC50 [3]: > 168 µM
- inhibition [4]: 38.4%
- Activity [5]: inactive

Compound: Oc1nnc(Cc2ccccc2Cl)c2ccccc12
- inhibition [1]: 67.3%
- IC50 ([2]; Human immunodeficiency virus 1): 41.6 µM
- CC50 [3]: > 185 µM
- inhibition [4]: 29.8%
- Activity [5]: inactive
- Ratio CC50/IC50 [6]: >4.5

Compound: CC(C)(C)n1nc(Cc2ccc(Cl)cc2)c2ccccc2c1=O
- inhibition [1]: 82.1%
- IC50 ([2]; Human immunodeficiency virus 1): 12.8 µM
- CC50 [3]: 72.1 µM
- inhibition [4]: 11.5%
- Activity [5]: inactive
- Ratio CC50/IC50 [6]: 5.6

Compound: COc1ccc(CC2(O)c3ccccc3C3=NCCCN32)cc1 (stereo not drawn)
- inhibition [1]: < 0%
- IC50 ([2]; Human immunodeficiency virus 1): 74.2 µM
- CC50 [3]: > 162 µM
- inhibition [4]: 3.8%
- Ratio CC50/IC50 [6]: >2.2

Compound: OC1(Cc2ccc3ccccc3c2)c2ccccc2C2=NCCCN21 (stereo not drawn)
- inhibition [1]: 100%
- IC50 ([2]; Human immunodeficiency virus 1): 60.8 µM
- CC50 [3]: 81 µM
- inhibition [4]: 51.2%
- Activity [5]: inactive
- Ratio CC50/IC50 [6]: 1.3

Compound: Cc1ccc2c(c1)/C(=C/c1ccccc1Cl)OC2=O
- inhibition [1]: 71%
- IC50 [2]: 133 µM
- CC50 [3]: > 185 µM
- inhibition [4]: < 0%
- Activity [5]: inactive
- Ratio CC50/IC50 [6]: >1.4

Compound: Cn1nc(Cc2ccc3c(c2)OCO3)c2ccccc2c1=O
- inhibition [1]: 97.2%
- IC50 ([2]; Human immunodeficiency virus 1): 27.4 µM
- CC50 [3]: 131 µM
- inhibition [4]: 25.5%
- Activity [5]: inactive
- Ratio CC50/IC50 [6]: 4.8

Compound: COc1cc(Cc2nnc(O)c3ccccc23)cc(OC)c1OC
- inhibition [1]: 96.5%
- IC50 ([2]; Human immunodeficiency virus 1): 51.7 µM
- CC50 [3]: 135 µM
- inhibition [4]: < 0%
- Activity [5]: inactive
- Ratio CC50/IC50 [6]: 2.6

Compound: COc1ccc(/C=C2\OC(=O)c3ccccc32)cc1
- inhibition [1]: 87.6%
- IC50 ([2]; Human immunodeficiency virus 1): 14.3 µM
- inhibition [4]: 74%
- Activity [5]: Active

Compound: Oc1nnc(Cc2ccccc2Cl)c2cc(Cl)c(Cl)cc12
- inhibition [1]: 65.9%
- IC50 ([2]; Human immunodeficiency virus 1): 22 µM
- CC50 [3]: > 147 µM
- inhibition [4]: 11.2%
- Activity [5]: inactive
- Ratio CC50/IC50 [6]: >6.7

Compound: O=c1c2ccccc2c(Cc2ccc(Cl)cc2)nn1-c1ccc(Br)cc1
- inhibition [1]: < 0%
- IC50 ([2]; Human immunodeficiency virus 1): 88.1 µM
- CC50 [3]: 91.8 µM
- inhibition [4]: < 0%
- Ratio CC50/IC50 [6]: 1

Compound: COc1ccc(CC2(O)c3cc(Cl)c(Cl)cc3C3=NCCN32)cc1 (stereo not drawn)
- inhibition [1]: 100%
- IC50 ([2]; Human immunodeficiency virus 1): 27.6 µM
- CC50 [3]: 44.1 µM
- inhibition [4]: 75.3%
- Activity [5]: inactive
- Ratio CC50/IC50 [6]: 1.6

Compound: Cn1nc(Cc2ccccc2Cl)c2ccccc2c1=O
- inhibition [1]: 73%
- IC50 ([2]; Human immunodeficiency virus 1): 21.6 µM
- CC50 [3]: > 176 µM
- inhibition [4]: 18.3%
- Activity [5]: inactive
- Ratio CC50/IC50 [6]: >8.2

Compound: COc1ccc(Cc2nnc(O)c3ccccc23)cc1
- inhibition [1]: 12.6%
- IC50 ([2]; Human immunodeficiency virus 1): 15.7 µM
- CC50 [3]: > 149 µM
- inhibition [4]: < 0%
- Ratio CC50/IC50 [6]: >9.5

Compound: Cc1ccc2c(c1)/C(=C/c1ccc(Cl)cc1)OC2=O
- inhibition [1]: 96.8%
- IC50 ([2]; Human immunodeficiency virus 1): 15.8 µM
- inhibition [4]: 91.8%
- Activity [5]: Active

Compound: CCn1nc(Cc2ccc(OC)cc2)c2ccccc2c1=O
- inhibition [1]: 93.5%
- IC50 ([2]; Human immunodeficiency virus 1): 22.3 µM
- CC50 [3]: 89.5 µM
- inhibition [4]: 14.2%
- Activity [5]: inactive
- Ratio CC50/IC50 [6]: 4

Compound: O=C1O/C(=C\c2ccc(Cl)cc2)c2ccccc21
- inhibition [1]: 84.8%
- IC50 ([2]; Human immunodeficiency virus 1): 23.8 µM
- CC50 [3]: > 195 µM
- inhibition [4]: 84.6%
- Activity [5]: Active
- Ratio CC50/IC50 [6]: >8.2

Compound: Cn1nc(Cc2cccc3ccccc23)c2ccccc2c1=O
- inhibition [1]: 100%
- IC50 ([2]; Human immunodeficiency virus 1): 11 µM
- CC50 [3]: 62.9 µM
- inhibition [4]: 43.2%
- Activity [5]: Active
- Ratio CC50/IC50 [6]: 5.7

Compound: Cn1nc(Cc2ccccc2)c2ccccc2c1=O
- inhibition [1]: 19.4%
- IC50 ([2]; Human immunodeficiency virus 1): 47.5 µM
- CC50 [3]: > 156 µM
- inhibition [4]: 11.4%
- Ratio CC50/IC50 [6]: >3.3

Compound: Oc1nnc(Cc2ccc(Cl)c(Cl)c2)c2cc(Cl)c(Cl)cc12
- inhibition [1]: 14.9%
- IC50 ([2]; Human immunodeficiency virus 1): 19.5 µM
- CC50 [3]: 64.7 µM
- inhibition [4]: 28.4%
- Ratio CC50/IC50 [6]: 3.3

Compound: OC1(Cc2ccc(Cl)cc2Cl)c2ccccc2C2=NCCN21 (stereo not drawn)
- inhibition [1]: < 0%
- IC50 ([2]; Human immunodeficiency virus 1): 13.8 µM
- CC50 [3]: 87.5 µM
- inhibition [4]: 86.6%
- Activity [5]: inactive
- Ratio CC50/IC50 [6]: 6.3

Compound: O=C1O/C(=C\c2ccc(Cl)cc2)c2cc(Cl)c(Cl)cc21
- inhibition [1]: 3.2%
- IC50 ([2]; Human immunodeficiency virus 1): 45.6 µM
- CC50 [3]: > 154 µM
- inhibition [4]: < 0%
- Ratio CC50/IC50 [6]: >3.4

Compound: O=C1O/C(=C\c2cccc3ccccc23)c2ccccc21
- inhibition [1]: < 0%
- IC50 ([2]; Human immunodeficiency virus 1): > 50 µM
- inhibition [4]: 6.5%

Compound: C=CCn1nc(Cc2ccc(OC)cc2)c2ccccc2c1=O
- inhibition [1]: 50%
- IC50 ([2]; Human immunodeficiency virus 1): 30.5 µM
- CC50 [3]: 68.6 µM
- inhibition [4]: 2.9%
- Activity [5]: inactive
- Ratio CC50/IC50 [6]: 2.3

Compound: O=C1O/C(=C\c2ccc(Cl)cc2)c2c1cccc2[N+](=O)[O-]
- inhibition [1]: < 0%
- IC50 ([2]; Human immunodeficiency virus 1): 119 µM
- CC50 [3]: < 20.7 µM
- inhibition [4]: 63.7%
- Activity [5]: Active
- Ratio CC50/IC50 [6]: <0.2

Compound: Cn1nc(Cc2ccc(Cl)cc2Cl)c2ccccc2c1=O
- inhibition [1]: < 0%
- IC50 ([2]; Human immunodeficiency virus 1): 18.8 µM
- CC50 [3]: 112 µM
- inhibition [4]: 14%
- Ratio CC50/IC50 [6]: 6

Compound: CSc1ccc(/C=C2\OC(=O)c3ccccc32)cc1
- inhibition [1]: 86.7%
- IC50 ([2]; Human immunodeficiency virus 1): 23.4 µM
- CC50 [3]: > 187 µM
- inhibition [4]: 89.7%
- Activity [5]: Active
- Ratio CC50/IC50 [6]: >8

Compound: CCCCn1nc(Cc2ccc(OC)c(OC)c2)c2ccccc2c1=O
- inhibition [1]: 83%
- IC50 ([2]; Human immunodeficiency virus 1): 16 µM
- CC50 [3]: 70.3 µM
- inhibition [4]: 6.7%
- Activity [5]: Active
- Ratio CC50/IC50 [6]: 4.4

Compound: O=C1O/C(=C\c2ccccc2Cl)c2ccccc21 (stereo in doubt; 1b)
- inhibition [1]: < 0%
- IC50 [2]: 24.4 µM
- CC50 [3]: > 195 µM
- inhibition [4]: 76.8%
- Activity [5]: inactive
- Ratio CC50/IC50 [6]: >8

Compound: Cn1nc(Cc2ccc3ccccc3c2)c2ccccc2c1=O
- inhibition [1]: 99.9%
- IC50 ([2]; Human immunodeficiency virus 1): 16.6 µM
- CC50 [3]: 57.2 µM
- inhibition [4]: 11.8%
- Activity [5]: Active
- Ratio CC50/IC50 [6]: 3.5

Compound: O=C1O/C(=C\c2ccc3c(c2)OCO3)c2ccccc21
- inhibition [1]: 91.8%
- IC50 ([2]; Human immunodeficiency virus 1): 12.2 µM
- CC50 [3]: 138 µM
- inhibition [4]: 87.2%
- Activity [5]: Active
- Ratio CC50/IC50 [6]: 11.3

Compound: O=c1c2ccccc2c(Cc2ccc(Cl)cc2)nn1-c1ccccc1
- inhibition [1]: 86.4%
- IC50 ([2]; Human immunodeficiency virus 1): 58.7 µM
- CC50 [3]: 67.7 µM
- inhibition [4]: < 0%
- Activity [5]: inactive
- Ratio CC50/IC50 [6]: 1.2
